Where a name gives a salt, the structure may show the parent alone.
Row | Compound | melting point
1 | COC(=O)C1=C(CCc2ccccc2COCCN2CCCC2)NC(CC(=O)N2CCN(C3CC4CCC(C3)N4C)CC2)=C(C(=O)OC)C1c1c(Cl)cccc1Cl.O=C(O)CCC(=O)O (stereo not shown) | 168 °C (dec.)
2 | CCNCCOCc1ccccc1CCC1=C(C(=O)OC)C(c2c(Cl)cccc2Cl)C(C(=O)OC)=C(CC(=O)N2CCN(C34CCCC(CC3)N4C)CC2)N1 (stereo not shown) (as salt: citrate) | 151 °C
3 | COC(=O)C1=C(CCc2ccccc2C(=O)N2CCNCC2)NC(CC(=O)N2CCN(C3CC4CCC(C3)N4C)CC2)=C(C(=O)OC)C1c1c(Cl)cccc1Cl (stereo not shown) (as salt: HCl) | 198 to 200 °C (dec.)

Next, values leading:

Row | melting point | Compound
4 | 158 to 160 °C (dec.) | CNC(=O)CCC(=O)NCc1ccccc1CCC1=C(C(=O)OC)C(c2c(Cl)cccc2Cl)C(C(=O)OC)=C(CC(=O)N2CCN(C3CC4CCC(C3)N4C)CC2)N1 (stereo not shown) (as salt: citrate)
5 | 218 to 220 °C (dec.) | COC(=O)C1=C(CCc2ccccc2NS(=O)(=O)C(F)(F)F)NC(CC(=O)N2CCN(C3CC4CCC(C3)N4C)CC2)=C(C(=O)OC)C1c1c(Cl)cccc1Cl (stereo not shown) (as salt: HCl)
6 | 77 to 79 °C (dec.) | CCN(CC)Cc1ccccc1CCC1=C(C(=O)OC)C(c2c(Cl)cccc2Cl)C(C(=O)OC)=C(CC(=O)N2CCN(C3CC4CCC(C3)N4C)CC2)N1 (stereo not shown) (as salt: HCl)
7 | 143 °C | COC(=O)C1=C(CCc2ccccc2NS(C)(=O)=O)NC(CC(=O)N2CCN(C3CC4CCC(C3)N4C)CC2)=C(C(=O)OC)C1c1c(Cl)cccc1Cl (stereo not shown) (as salt: HCl)
